Assay [1] has as its system Mycobacterium tuberculosis. As to the kind of experiment: Antitubercular activity against Mycobacterium tuberculosis H37Rv by low-oxygen-recovery assay. Type of assay: functional.
Another assay concerns the target T1, Falcipain 2 (Plasmodium falciparum, UniProt Q9N6S8).
T1 sequence (Q9N6S8 whole entry): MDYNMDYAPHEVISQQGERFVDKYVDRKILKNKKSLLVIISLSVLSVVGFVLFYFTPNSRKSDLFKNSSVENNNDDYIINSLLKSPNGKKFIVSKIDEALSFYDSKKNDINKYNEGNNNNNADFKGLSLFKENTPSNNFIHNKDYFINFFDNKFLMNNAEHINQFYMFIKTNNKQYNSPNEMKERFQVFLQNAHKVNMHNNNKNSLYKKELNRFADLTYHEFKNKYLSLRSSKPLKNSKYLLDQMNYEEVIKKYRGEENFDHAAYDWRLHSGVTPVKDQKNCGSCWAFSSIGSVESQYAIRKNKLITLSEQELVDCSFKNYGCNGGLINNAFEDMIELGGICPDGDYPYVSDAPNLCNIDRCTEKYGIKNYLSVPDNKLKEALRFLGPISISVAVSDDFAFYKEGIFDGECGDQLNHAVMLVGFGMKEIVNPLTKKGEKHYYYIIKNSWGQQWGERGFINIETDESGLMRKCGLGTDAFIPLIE
As to the kind of experiment: Inhibition of Plasmodium falciparum falcipain-2.

The subject of assay [2] is Plasmodium falciparum. As to the kind of experiment: Antimicrobial activity against chloroquine-resistant Plasmodium falciparum W2. It counts as functional, organism-based.
In assay [3] the test system is Mycobacterium tuberculosis. As to the kind of experiment: Antitubercular activity against Mycobacterium tuberculosis H37Rv by microplate Alamar blue assay. Type of assay: functional.
In assay [4] the test system is Plasmodium falciparum. The assay is described as follows: Antimicrobial activity against chloroquine-sensitive Plasmodium falciparum D10. It counts as functional, organism-based.

Structures are written as SMILES. Converted amounts (≈) assume the structure as drawn.

For `C#CCOc1ccccc1/C=C/C(=O)c1ccc(OC)cc1OC`, the MIC in assay [1] was found to be 14.9 µM (≈ 4.8 µg/mL); in assay [3] it was 59.1 µM (≈ 19.1 µg/mL). For the same compound, the values for the IC50 against Falcipain 2, in the assay on Plasmodium falciparum [2] and in the assay with Plasmodium falciparum [4] were greater than 100 µM, greater than 20 µM and 8 µM, respectively.
Consider `C#CCOc1ccc(/C=C/C(=O)c2ccc(OC)cc2)cc1`, for which the IC50 was greater than 100 µM at Falcipain 2, greater than 20 µM with Plasmodium falciparum [2] and greater than 100 µM with Plasmodium falciparum [4]. The compound further registered an MIC in assay [3] greater than 128 µM.
On to `C#CCOc1cccc(C(=O)/C=C/c2ccc(OC)cc2OC)c1`, for which the IC50 was greater than 100 µM on Falcipain 2, greater than 20 µM in the assay on Plasmodium falciparum [2] and greater than 100 µM in the assay with Plasmodium falciparum [4]. For the same compound, in assay [3], the MIC was greater than 128 µM.
For `C#CCOc1cccc(C(=O)/C=C/c2ccc(OC)c(OC)c2OC)c1`, the MIC in assay [1] worked out at 29.7 µM (≈ 10.5 µg/mL); in assay [3], 58.7 µM (≈ 20.7 µg/mL). The values for the IC50 on Falcipain 2, in the assay with Plasmodium falciparum [2] and in the assay on Plasmodium falciparum [4] were greater than 100 µM, greater than 20 µM and 33 µM, respectively.
Regarding `C#CCOc1ccc(/C=C/C(=O)c2ccc(OC)cc2OC)cc1OC`, the IC50 in the assay on Plasmodium falciparum [2] is 3.8 µM; in the assay with Plasmodium falciparum [4], 3.4 µM. This compound also returned an MIC in assay [3] greater than 128 µM.
On to `C#CCOc1ccc(C(=O)/C=C/c2ccc(OC)cc2OC)cc1`, for which the MIC worked out at 108 µM (≈ 34.8 µg/mL) in assay [1] and 31 µM (≈ 9.99 µg/mL) in assay [3]. Besides, the IC50 is greater than 100 µM against Falcipain 2, greater than 20 µM in the assay with Plasmodium falciparum [2] and greater than 100 µM with Plasmodium falciparum [4].
Take `C#CCOc1ccc(C(=O)/C=C/c2ccc(OC)c(OC)c2OC)cc1`: the IC50 on Falcipain 2 is greater than 100 µM; with Plasmodium falciparum [2], greater than 20 µM; with Plasmodium falciparum [4], 4.43 µM. In assay [3], this compound displayed an MIC greater than 128 µM.
For the compound `C#CCOc1ccc(/C=C/C(=O)c2ccc(OC)cc2)cc1OC`, the IC50 in the assay on Plasmodium falciparum [2] is 8.4 µM; in the assay with Plasmodium falciparum [4], 9.7 µM. Moreover, in assay [3], the MIC is greater than 128 µM.
As for `C#CCOc1ccc(/C=C/C(=O)c2ccc(OC)c(OC)c2OC)cc1OC`, the IC50 with Plasmodium falciparum [2] stood at 7 µM; in the assay on Plasmodium falciparum [4] it was 7.7 µM. In assay [3], this compound came in with an MIC of 109 µM (≈ 41.7 µg/mL).
In the case of `C#CCOc1ccccc1C(=O)/C=C/c1ccc(OC)c(OC)c1OC`, the MIC in assay [1] worked out at 46.1 µM (≈ 16.2 µg/mL); in assay [3], 98.7 µM (≈ 34.8 µg/mL). For the same compound, the IC50 is greater than 100 µM against Falcipain 2, greater than 20 µM in the assay with Plasmodium falciparum [2] and greater than 100 µM in the assay on Plasmodium falciparum [4].
For `C#CCOc1cccc(C(=O)/C=C/c2ccc(OC)cc2)c1`, the MIC is greater than 128 µM in assay [1] and 51.2 µM (≈ 15 µg/mL) in assay [3]. Moreover, the values for the IC50 at Falcipain 2, in the assay with Plasmodium falciparum [2] and with Plasmodium falciparum [4] were greater than 100 µM, greater than 20 µM and greater than 100 µM, respectively.
Turning to `C#CCOc1ccc(/C=C/C(=O)c2ccc(OC)c(OC)c2OC)cc1`, the concentration for half-maximal inhibition (IC50) on Falcipain 2 was greater than 100 µM; with Plasmodium falciparum [2], greater than 20 µM; in the assay with Plasmodium falciparum [4] it was 13.3 µM. In assay [3], this compound had an MIC greater than 128 µM.
With `C#CCOc1ccccc1C(=O)/C=C/c1ccc(OC)cc1`, the results for the MIC in assay [1] and in assay [3] were 56.7 µM (≈ 16.6 µg/mL) and 31.1 µM (≈ 9.09 µg/mL), respectively. The IC50 against Falcipain 2 is greater than 100 µM; in the assay on Plasmodium falciparum [2] it was greater than 20 µM; in the assay on Plasmodium falciparum [4] it was greater than 100 µM.
For the compound `C#CCOc1ccccc1C(=O)/C=C/c1ccc(OC)cc1OC`, the MIC in assay [1] was 62.8 µM (≈ 20.2 µg/mL); in assay [3] it was 53.7 µM (≈ 17.3 µg/mL). In addition, the IC50 against Falcipain 2 is greater than 100 µM; in the assay on Plasmodium falciparum [2] it was greater than 20 µM; in the assay on Plasmodium falciparum [4], 18.9 µM.
Turning to `C#CCOc1cccc(/C=C/C(=O)c2ccc(OC)cc2)c1`, the MIC worked out at 31.7 µM (≈ 9.27 µg/mL) in assay [1] and 40 µM (≈ 11.7 µg/mL) in assay [3]. Also, the IC50 at Falcipain 2 was greater than 100 µM; in the assay on Plasmodium falciparum [2], greater than 20 µM; in the assay on Plasmodium falciparum [4], 11.6 µM.
Regarding `C#CCOc1cccc(/C=C/C(=O)c2ccc(OC)cc2OC)c1`, the MIC in assay [1] was determined as 26.1 µM (≈ 8.41 µg/mL); in assay [3] it was 54.9 µM (≈ 17.7 µg/mL). Further, the IC50 on Falcipain 2 is greater than 100 µM; with Plasmodium falciparum [2], greater than 20 µM; in the assay on Plasmodium falciparum [4], 7.57 µM.
Taken in the same sequence, the figures for `C#CCOc1cccc(/C=C/C(=O)c2ccc(OC)c(OC)c2OC)c1` were 13.1 µM (≈ 4.62 µg/mL), 54 µM (≈ 19 µg/mL), greater than 19 µM, greater than 20 µM and greater than 100 µM.
Taken in the same sequence, the figures for `C#CCOc1ccccc1/C=C/C(=O)c1ccc(OC)cc1` were 50.7 µM (≈ 14.8 µg/mL), 47.5 µM (≈ 13.9 µg/mL), greater than 100 µM, greater than 20 µM and greater than 100 µM.
In the case of `C#CCOc1ccccc1/C=C/C(=O)c1ccc(OC)c(OC)c1OC`, the values for the MIC in assay [1] and in assay [3] were 28.6 µM (≈ 10.1 µg/mL) and 61.9 µM (≈ 21.8 µg/mL), respectively. Also, the IC50 on Falcipain 2 was greater than 100 µM; with Plasmodium falciparum [2] it was greater than 20 µM; in the assay on Plasmodium falciparum [4], 50.6 µM.
With `C#CCOc1ccc(C(=O)/C=C/c2ccc(OC)c(OC)c2OC)cc1OC`, the IC50 with Plasmodium falciparum [2] was found to be 6.7 µM; with Plasmodium falciparum [4], 4.1 µM. The MIC in assay [3] is greater than 128 µM.
For the compound `C#CCOc1ccc(/C=C/C(=O)c2ccc(OC)cc2OC)cc1`, the IC50 against Falcipain 2 is greater than 100 µM; with Plasmodium falciparum [2], greater than 20 µM; in the assay on Plasmodium falciparum [4], 54.8 µM. The same compound came in with an MIC in assay [3] greater than 128 µM.
Take `C#CCOc1ccc(C(=O)/C=C/c2ccc(OC)cc2)cc1`: the half-inhibitory concentration (IC50) on Falcipain 2 is greater than 100 µM; with Plasmodium falciparum [2], greater than 20 µM; in the assay on Plasmodium falciparum [4], 16.5 µM. Besides, in assay [3], the minimal inhibitory concentration (MIC) was greater than 128 µM.
Turning to `C#CCOc1ccc(C(=O)/C=C/c2ccc(OC)cc2OC)cc1OC`, the results for the IC50 in the assay on Plasmodium falciparum [2] and in the assay on Plasmodium falciparum [4] were 9.7 µM and 20 µM, respectively. In addition, in assay [3], the MIC was greater than 128 µM.
Compound `CC(C)C[C@H](NC(=O)[C@H]1O[C@@H]1C(=O)O)C(=O)NCCCCN=C(N)N` [E-64] had an IC50 at Falcipain 2 of 0.047 µM.
Regarding `NNC(=O)c1ccncc1` [ISONIAZID], the MIC in assay [1] is greater than 128 µM; in assay [3], 0.37 µM (≈ 0.0507 µg/mL).
Taken in the same sequence, the figures for `COc1c(N2C[C@@H]3CCCN[C@@H]3C2)c(F)cc2c(=O)c(C(=O)O)cn(C3CC3)c12` [MOXIFLOXACIN] were 31.1 µM (≈ 12.5 µg/mL) and 0.29 µM (≈ 0.116 µg/mL).
Taken in the same sequence, the figures for `O=[N+]([O-])c1cn2c(n1)OC[C@@H](OCc1ccc(OC(F)(F)F)cc1)C2` [PRETOMANID] were 3.3 µM (≈ 1.19 µg/mL) and 0.16 µM (≈ 0.0575 µg/mL).
Taken in the same sequence, the figures for `CO[C@H]1/C=C/O[C@@]2(C)Oc3c(C)c(O)c4c(O)c(c(/C=N/N5CCN(C)CC5)c(O)c4c3C2=O)NC(=O)/C(C)=C\C=C\[C@H](C)[C@H](O)[C@@H](C)[C@@H](O)[C@@H](C)[C@H](OC(C)=O)[C@@H]1C` [RIFAMPIN] were 2.4 µM (≈ 1.98 µg/mL) and 0.05 µM (≈ 0.0411 µg/mL).
